Source: patent publication US9668497B2, “Flavor-enhancing compounds” (INTERNATIONAL FLAVORS & FRAGRANCES INC., priority 2015, dated 2017)
Blank lines part the entries; values can stand above or below the compound they belong to.

Columns and labels:
[1] = Cooling enhancement in menthyl lactate (35 ppm); format: in vivo
Description: (§1) The cooling enhancement of Formula I and Na-Formula I in cooling compounds including WS-5 (30 ppm), WS-23 (35 ppm), menthyl lactate (35 ppm), WS-3 (30 ppm) and Cooler 2 (10 ppm) was also evaluated.

[2] = Cooling enhancement in various cooling compounds (summary of Example VII); format: in vivo; conditions: WS-5, WS-23, menthyl lactate, WS-3, Cooler 2; table footnote
Description: as §1

[3] = Cooling enhancement in WS-23 (35 ppm); format: in vivo
Description: as §1

[4] = Cooling enhancement in menthol (35 ppm), trained sensory panel; format: in vivo
Description: The flavor compositions of menthol (35 ppm) combined with 7,8-dihydroxy-2-phenyl-4H-chromen-4-one (Formula I) at different concentrations were evaluated by a trained sensory panel. Sensory results are reported in the following. […]

[5] = Cooling enhancement in WS-3 (30 ppm); format: in vivo
Description: as §1

[6] = Solubility in aqueous solutions; format: physicochemical
[7] = Sensory description of Formula I alone in water; format: in vivo; conditions: 20 ppm in water
[8] = Cooling enhancement in Cooler 2 (10 ppm); format: in vivo
Description: as §1

[9] = Cooling enhancement in WS-5 (30 ppm); format: in vivo
Description: as §1

Solubility in aqueous solutions [6]: sparingly soluble
SMILES: O=c1cc(-c2ccccc2)oc2c(O)c(O)ccc12 [Formula I, 7,8-dihydroxy-2-phenyl-4H-chromen-4-one]
Evaluation on the Cooling Enhancement ([1]; test substance 1 ppm): Marginal | Evaluation on the Cooling Enhancement ([1]; test substance 2 ppm): Marginal | Evaluation on the Cooling Enhancement ([1]; test substance 5 ppm): Marginal | Evaluation on the Cooling Enhancement ([1]; test substance 10 ppm): ~10% enhancement | Evaluation on the Cooling Enhancement ([1]; test substance 20 ppm): ~20% enhancement | Evaluation on the Cooling Enhancement ([1]; test substance 30 ppm): ~20% enhancement, | Evaluation on the Cooling Enhancement ([1]; test substance 40 ppm): Enhancement, | Evaluation on the Cooling Enhancement ([1]; test substance 50 ppm): Enhancement, | Evaluation on the Cooling Enhancement ([1]; test substance 100 ppm): Enhancement, | Cooling enhancement, overall statement [2]: Formula I and Na-Formula I enhanced the cooling sensation of various cooling compounds. | Evaluation on the Cooling Enhancement ([3]; test substance 1 ppm): Marginal | Evaluation on the Cooling Enhancement ([3]; test substance 2 ppm): Marginal | Evaluation on the Cooling Enhancement ([3]; test substance 5 ppm): Marginal | Evaluation on the Cooling Enhancement ([3]; test substance 10 ppm): ~10% enhancement | Evaluation on the Cooling Enhancement ([3]; test substance 20 ppm): ~20% enhancement | Evaluation on the Cooling Enhancement ([3]; test substance 30 ppm): ~20% enhancement, | Evaluation on the Cooling Enhancement ([3]; test substance 40 ppm): Enhancement, | Evaluation on the Cooling Enhancement ([3]; test substance 50 ppm): Enhancement, | Evaluation on the Cooling Enhancement ([3]; test substance 100 ppm): Enhancement, | Cooling enhancement, overall statement ([4]; menthol 35 ppm, table footnote): Formula I enhanced the cooling sensation of menthol. | Flavor Profile: cooling enhancement ([4]; menthol 35 ppm, test substance 1 ppm): Marginal cooling enhancement | Flavor Profile: cooling enhancement ([4]; menthol 35 ppm, test substance 2 ppm): Marginal cooling enhancement | Flavor Profile: cooling enhancement ([4]; menthol 35 ppm, test substance 5 ppm): Marginal cooling enhancement | Flavor Profile: cooling enhancement ([4]; menthol 35 ppm, test substance 10 ppm): ~10% cooling enhancement | Flavor Profile: cooling enhancement ([4]; menthol 35 ppm, test substance 20 ppm): ~20% cooling enhancement, | Flavor Profile: cooling enhancement ([4]; menthol 35 ppm, test substance 30 ppm): ~20% cooling enhancement, slight | Flavor Profile: cooling enhancement ([4]; menthol 35 ppm, test substance 40 ppm): Cooling enhancement, reduced | Flavor Profile: cooling enhancement ([4]; menthol 35 ppm, test substance 50 ppm): Cooling enhancement, harsh | Flavor Profile: cooling enhancement ([4]; menthol 35 ppm, test substance 100 ppm): Cooling enhancement, harsh | Evaluation on the Cooling Enhancement ([5]; test substance 1 ppm): Marginal | Evaluation on the Cooling Enhancement ([5]; test substance 2 ppm): Marginal | Evaluation on the Cooling Enhancement ([5]; test substance 5 ppm): Marginal | Evaluation on the Cooling Enhancement ([5]; test substance 10 ppm): ~15% enhancement | Evaluation on the Cooling Enhancement ([5]; test substance 20 ppm): ~20% enhancement | Evaluation on the Cooling Enhancement ([5]; test substance 30 ppm): ~20% enhancement, | Evaluation on the Cooling Enhancement ([5]; test substance 40 ppm): Enhancement, | Evaluation on the Cooling Enhancement ([5]; test substance 50 ppm): Enhancement, | Evaluation on the Cooling Enhancement ([5]; test substance 100 ppm): Enhancement, | Cooling property [7]: no cooling property | Evaluation on the Cooling Enhancement ([8]; test substance 1 ppm): Marginal | Evaluation on the Cooling Enhancement ([8]; test substance 2 ppm): Marginal | Evaluation on the Cooling Enhancement ([8]; test substance 5 ppm): Marginal | Evaluation on the Cooling Enhancement ([8]; test substance 10 ppm): ~10% enhancement | Evaluation on the Cooling Enhancement ([8]; test substance 20 ppm): ~10% enhancement | Evaluation on the Cooling Enhancement ([8]; test substance 30 ppm): ~20% enhancement, | Evaluation on the Cooling Enhancement ([8]; test substance 40 ppm): Enhancement, | Evaluation on the Cooling Enhancement ([8]; test substance 50 ppm): Enhancement, | Evaluation on the Cooling Enhancement ([8]; test substance 100 ppm): Enhancement, | Evaluation on the Cooling Enhancement ([9]; test substance 1 ppm): Marginal | Evaluation on the Cooling Enhancement ([9]; test substance 2 ppm): Marginal | Evaluation on the Cooling Enhancement ([9]; test substance 5 ppm): Marginal | Evaluation on the Cooling Enhancement ([9]; test substance 10 ppm): ~15% enhancement | Evaluation on the Cooling Enhancement ([9]; test substance 20 ppm): ~20% enhancement | Evaluation on the Cooling Enhancement ([9]; test substance 30 ppm): ~20% enhancement, | Evaluation on the Cooling Enhancement ([9]; test substance 40 ppm): Enhancement, | Evaluation on the Cooling Enhancement ([9]; test substance 50 ppm): Enhancement, | Evaluation on the Cooling Enhancement ([9]; test substance 100 ppm): Enhancement,

SMILES: CC1CCC(C(C)C)C(O)C1 (centres unmarked) [Menthol, menthol, reference compound]
Flavor Profile ([4]; menthol 35 ppm alone, 0 ppm enhancer): Cooling sensation
